Measurements reported in PubChem BioAssay (NCI).
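All cell lines were grown in 96-well plates and treated with compound for 48 hours. At the GI50, growth is halved. TGI marks complete inhibition of growth.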

Assays:
Assay in all cases: inhibition of tumour cell growth, NCI panel, 48 h
A498 renal = tested on: A498 renal
COLO 205 colon = tested on: COLO 205 colon
HOP-92 NSCLC = tested on: HOP-92 NSCLC
HT29 colon = tested on: HT29 colon
LOX IMVI melanoma = tested on: LOX IMVI melanoma
NCI-H522 lung = tested on: NCI-H522 lung
OVCAR-5 ovarian = tested on: OVCAR-5 ovarian
SF-539 CNS = tested on: SF-539 CNS
SK-MEL-28 melanoma = tested on: SK-MEL-28 melanoma

Structure (SMILES)	TGI (A498 renal) [µM]	TGI (COLO 205 colon) [µM]	TGI (HOP-92 NSCLC) [µM]	TGI (HT29 colon) [µM]	TGI (LOX IMVI melanoma) [µM]	TGI (NCI-H522 lung) [µM]	TGI (OVCAR-5 ovarian) [µM]	TGI (SF-539 CNS) [µM]	TGI (SK-MEL-28 melanoma) [µM]	GI50 (A498 renal) [µM]	GI50 (COLO 205 colon) [µM]	GI50 (HOP-92 NSCLC) [µM]	GI50 (LOX IMVI melanoma) [µM]	GI50 (NCI-H522 lung) [µM]	GI50 (OVCAR-5 ovarian) [µM]	GI50 (SF-539 CNS) [µM]	GI50 (SK-MEL-28 melanoma) [µM]	GI50 (HT29 colon) [µM]
N#Cc1cccc(C2SCc3nc4ccccc4n32)c1 (stereo unspecified)	> 100	> 100	> 100	> 100	> 100	> 100	> 100	> 100	> 100	–	–	–	–	–	–	–	–	–
O=C(c1ccccc1)N1CCc2c([nH]c3ccccc23)C1	–	36.7	> 100	> 100	> 100	64.8	> 100	> 100	> 100	–	–	–	–	–	–	–	–	–
C/C(=N\NC(N)=S)c1ccc(Oc2ccccc2)cc1	29.5	25.7	9.48	–	34.5	–	–	17.6	33.2	–	–	–	–	–	–	–	–	–
O=c1ccn([C@@H]2C[C@H](CO)CS(=O)C2)c(=O)[nH]1 (stereo partly specified)	> 100	> 100	> 100	> 100	> 100	> 100	–	> 100	> 100	–	–	–	–	–	–	–	–	–
N=C(N)c1ccc(-c2ccc(-c3cccs3)s2)cc1F	0.621	0.39	2.21	–	2.67	3.88	2.36	3.38	3.09	0.156	0.202	0.576	1.21	1.94	1.02	1.35	1.45	–
CCC[CH2][Sn]1([CH2]CCC)[O]C(=O)c2cccnc2[S]1	5.3	9.33	12.1	24.7	3.6	1.57	–	8.39	10.6	2.37	3.34	3.37	1.76	0.348	–	3.17	2.7	11.1
C#CC[C@]12CC(=O)CC[C@H]1CC1(C2)OCCO1	> 100	> 100	–	–	–	> 100	–	> 100	> 100	–	–	–	–	–	–	–	–	–
CC[C@H]1CNC(=O)CC1CC(=O)OC (stereo partly specified)	> 100	–	–	> 100	> 100	> 100	> 100	> 100	> 100	–	–	–	–	–	–	–	–	–
Cc1c(Cl)ccc2[s+]snc12	> 100	> 100	–	> 100	49.9	41.5	> 100	44.6	> 100	–	–	–	–	–	–	–	–	–
Cc1nc2ccccc2c(=O)n1/N=C(\N=Nc1ccc(Cl)cc1)c1ccc(N(C)C)cc1	> 100	> 100	–	> 100	> 100	> 100	–	> 100	> 100	–	–	–	–	–	–	–	–	–
N#CC1(C2CC(=O)N(c3ccccc3)C2=O)CCCCC1=O (stereo unspecified)	–	> 100	–	> 100	> 100	–	> 100	> 100	> 100	–	–	–	–	–	–	–	–	–
O=C(Nc1cc(Cl)ccc1Cl)c1cc2ccccc2oc1=O	–	> 100	–	> 100	> 100	> 100	–	> 100	> 100	–	–	–	–	–	–	–	–	–
CCCCCCCCCCCCCCCCCCCCCCC(=O)N[C@H]1CCc2cc(OC)c(OC)c(OC)c2-c2ccc(SC)c(=O)cc21	40.7	31.9	> 100	99	–	33.1	> 100	41.3	> 100	–	–	–	–	–	–	–	–	–
COC(=O)N1C=Cc2c(c(C)c3c([nH]c4ccccc43)c2C)C1C (stereo unspecified)	28.8	34.4	36.5	26.5	33.7	–	34.5	35.3	31.1	–	–	–	–	–	–	–	–	–
Cc1cc2c(=O)cc(-c3ccncc3)oc2c(C(N)=O)c1C	–	> 100	> 100	> 100	> 100	–	> 100	> 100	> 100	–	–	–	–	–	–	–	–	–
O=C1C(=C2C(=O)c3ccccc3[N+]2=O)N([O-])c2ccccc21	73.8	33	–	94.1	29.8	–	> 100	47.7	> 100	–	–	–	–	–	–	–	–	–
CCOc1ccc(-c2nc3ccc(-c4nc5ccc(N6CCN(C)CC6)cc5[nH]4)cc3[nH]2)cc1OCC	4.58	2	8.73	12.1	–	3.8	14.2	2.71	2.18	1.51	0.322	1.35	–	1.16	4.37	1.2	0.701	2.6
CCCCP1(=O)C=CC(Cl)=C(C)C1 (stereo unspecified)	> 100	> 100	> 100	> 100	–	> 100	> 100	> 100	> 100	–	–	–	–	–	–	–	–	–
COc1cc(/C=C(\C#N)C(=O)c2ccccc2)cc(OC)c1OC	–	> 100	> 100	> 100	> 100	> 100	> 100	> 100	> 100	–	–	–	–	–	–	–	–	–
CC(=O)Nc1ccc(/C=C/C(=O)c2sc(-n3nc(-c4ccccc4)cc3-c3ccccc3)nc2C)cc1	> 100	> 100	–	> 100	> 100	> 100	–	> 100	> 100	> 100	> 100	–	> 100	–	–	> 100	> 100	–
